Data taken from US5525627A, “Esters of acyl carnitines with long-chain aliphatic alcohols and pharmaceutical compositions containing same having antimycotic activity” (Sigma-Tau Industrie Farmaceutiche Riunite S.p.A., priority 1992, dated 1996).

Legend:
[1] = tested on: Cryptococcus neoformans (4711); assay: MIC for yeast and yeast-like strains; assay type: cell-based; details: 48 hours, 35° C., read-out: Minimal Inhibitory Concentration (MIC)
Description: (§1) The following strains were used (the number of strains is in brackets): Candida (13); Criptococcus (2); Saccharormyces (1); Torulopsis (1).
(§2) Yeast Nitrogen Base supplemented with 0.15% asparagine and 1.0% glucose (as carbon source) was the medium utilized in the assays.
(§3) This medium was buffered with 0.165 M 2-(N-morpholino) propane sulfonic acid (MOPS), a non-chelating buffer. […]
(§4) The inoculum was prepared from an overnight broth culture (a 48-hour culture only for Cryptococcus) in Sabouraud broth and appropriately diluted to yield a final suspension containing approximately 5.0×10^6 Colony Forming Units per ml (CFU/ml), when compared to the Mc Farland's standard control (BRAY W. E., Clinical Laboratory Methods, 5th Ed. C. V. MOSBY, St. Louis, Mo, 1957).
(§5) After further diluting (1:50), a […] volume of such fungal suspensions and an equal volume of the substance solutions were distributed into each well of a microtiter plate (96 wells, round bottom). Such a procedure eventually allowed for an "in vitro" antimycotic activity assay utilizing final fungal inocula of approximately 5.0×10^4 CFU/ml.

[2] = tested on: Candida tropicalis (5705); assay: MIC for yeast and yeast-like strains; assay type: cell-based; details: 48 hours, 35° C., read-out: Minimal Inhibitory Concentration (MIC)
Description: as §1, §2, §3, §4, §5

Candida albicans (A 54) = assay: MIC for yeast and yeast-like strains; assay type: cell-based; details: 48 hours, 35° C., read-out: Minimal Inhibitory Concentration (MIC)
Description: as §1, §2, §3, §4, §5

Candida albicans (Ca 2) = assay: MIC for yeast and yeast-like strains; assay type: cell-based; details: 48 hours, 35° C., read-out: Minimal Inhibitory Concentration (MIC)
Description: as §1, §2, §3, §4, §5

[3] = tested on: Saccharomyces cerevisiae (ATCC 7752); assay: MIC for yeast and yeast-like strains; assay type: cell-based; details: ATCC7752, 48 hours, 35° C., read-out: Minimal Inhibitory Concentration (MIC)
Description: as §1, §2, §3, §4, §5

[4] = tested on: Torulopsis candida (D.S.); assay: MIC for yeast and yeast-like strains; assay type: cell-based; details: Suzukiozyma candida; 48 hours, 35° C.; read-out: Minimal Inhibitory Concentration (MIC)
Description: as §1, §2, §3, §4, §5

Candida albicans (562) = assay: MIC for yeast and yeast-like strains; assay type: cell-based; details: 48 hours, 35° C., read-out: Minimal Inhibitory Concentration (MIC)
Description: as §1, §2, §3, §4, §5

Candida albicans (PG) = assay: MIC and MFC for yeast and yeast-like strains; assay type: cell-based; details: 48 hours, 35° C., read-out: Minimal Inhibitory Concentration (MIC)
Description: as §1, §2
(§6) This medium was buffered with 0.165 M 2-(N-morpholino) propane sulfonic acid (MOPS), a non-chelating buffer.
(§7) Antimicrob. Agents Cheroother. Aug. 34.8:1542-1545).
as §4, §5
(§8) The minimal fungicidal concentration was evaluated by spot-transferring onto Petri dishes, containing Sabouraud agar, 0.01-ml volumes of all the samples showing no visible fungal growth.

[5] = Assessment of behaviour and mortality in mice (Irwin's method); parameters: species or system mice (male Crl:(CD-1)(ICR)BR); details: mouse, in vivo; oral, dose 1000 (unit inferred), 4 animals/dose
Description: (§9) ASSESSMENT OF BEHAVIOUR AND MORTALITY IN MICE
(§10) The assessment of normal behaviour in mice was carried out following S. Irwin's method (Psychopharmacologia, 13, 222 [1968]). This method allows alterations in some behavioural, neurophysiologic and neurovegetative parameters to be detected, which are directly observable by the researcher. The study was conducted using male Crl:(CD-1)(ICR)BR mice (Charles River-Italy) weighing 22-25 g. following oral administration of the compounds suspended in carboxymethylcellulose (0.5% by weight in H2 O) to groups of 4 animals/dose.
(§11) The animals were continously kept under observation for five hours following treatment and twice a day in the subsequent five days. Mortality was also observed during the overall test period.

mice = assay: as above; parameters: species or system mice (male Crl:(CD-1)(ICR)BR); details: mouse, in vivo, po
Description: as §9, §10, §11

yeast-like fungi = assay: MIC / MFC for yeast-like fungi, all strains; assay type: cell-based, Candida, Cryptococcus, Saccharomyces, Torulopsis; details: versus susceptible strains; read-out: Mean MIC values
Description: as §1, §2, §3, §4, §5, §8

[6] = tested on: Candida albicans (ATCC 2091); assay: MIC for yeast and yeast-like strains; assay type: cell-based; details: ATCC2091, 48 hours, 35° C., read-out: Minimal Inhibitory Concentration (MIC)
Description: as §1, §2, §6, §7, §4, §5

[7] = tested on: Candida pseudotropicalis (EC 1); assay: MIC for yeast and yeast-like strains; assay type: cell-based; details: Kluyveromyces marxianus; 48 hours, 35° C.; read-out: Minimal Inhibitory Concentration (MIC)
Description: as §1, §2, §6, §7, §4, §5

filamentous fungi = assay: MIC / MFC for filamentous fungi, all strains; assay type: cell-based, Aspergillus, Fusarium, Mucor, Penicillium; details: versus susceptible strains; read-out: Mean MIC values
Excerpt: (§12) The following strains were used (the number of strains is in brackets): Aspergillus (5); Fusarium (1); Mucor (1); Penicillium (1).
(§13) The tested substances were: ST 712, ST 722, ST 982, ST 983, ST 1000, ST 1001, ST 1032, ST 1033, ST 1034, ST 1036, ST 1037, ST 1038, ST 1050, ST 1051, ST 1052, ST 1053. The assay medium was the same as the one used in the previous study. The conidia from 72-hour cultures in Sabouraud agar, collected by washing with Sabouraud medium and Tween 80 (one drop of Tween per 10 ml of medium), were utilized as inoculum (5.0×10^4 CFU/ml).
(§14) The assay was performed using the same procedure as described for yeast-like fungi.
(§15) Also the evaluation of MIC and MFC was as reported previously.

[8] = tested on: Aspergillus fumigatus (C/1); assay: MIC for filamentous fungi; assay type: cell-based; details: read-out: Minimal Inhibitory Concentration (MIC)
Excerpt: as §12, §13, §14, §15

[9] = tested on: Aspergillus fumigatus (ATCC 28212); assay: MIC for filamentous fungi; assay type: cell-based; details: ATCC28212, read-out: Minimal Inhibitory Concentration (MIC)
Excerpt: as §12, §13, §14, §15

Mucor mucedo (ATCC 7941) = assay: MIC for filamentous fungi; assay type: cell-based; details: ATCC7941, read-out: Minimal Inhibitory Concentration (MIC)
Excerpt: as §12, §13, §14, §15

[10] = tested on: Aspergillus fumigatus (1/A); assay: MIC for filamentous fungi; assay type: cell-based; details: read-out: Minimal Inhibitory Concentration (MIC)
Excerpt: as §12, §13, §14, §15

[11] = tested on: Aspergillus niger (ATCC 16404); assay: MIC for filamentous fungi; assay type: cell-based; details: ATCC16404, read-out: Minimal Inhibitory Concentration (MIC)
Excerpt: as §12, §13, §14, §15

[12] = tested on: Aspergillus fumigatus (2/A); assay: MIC for filamentous fungi; assay type: cell-based; details: read-out: Minimal Inhibitory Concentration (MIC)
Excerpt: as §12, §13, §14, §15

## CCCCCCCCCCCOC(=O)C[C@H](C[N+](C)(C)C)OC(=O)C(C)C [ST 712, ISOBUTYRYL-L-CARNITINE UNDECYL ESTER CHLORIDE]
[1]
  MIC: 3.12 µg/mL
[2]
  MIC: 3.12 µg/mL
Candida albicans (A 54)
  MIC: 12.5 µg/mL
Candida albicans (Ca 2)
  MIC: 6.25 µg/mL
[3]
  MIC: 6.25 µg/mL
[4]
  MIC: 12.5 µg/mL
Candida albicans (562)
  MIC: 12.5 µg/mL
Candida albicans (PG)
  MIC: 12.5 µg/mL
[5]
  mortality at 120 h: 0%
mice
  Symptoms: NONE
yeast-like fungi
  MIC: 9.37 µg/mL
[6]
  MIC: 12.5 µg/mL
[7]
  MIC: 12.5 µg/mL
Filamentous fungi
  MIC: 30 µg/mL
[8]
  MIC: 25 µg/mL
[9]
  MIC: 25 µg/mL
Mucor mucedo (ATCC 7941)
  MIC: 50 µg/mL
[10]
  MIC: 25 µg/mL
[11]
  MIC: 50 µg/mL
[12]
  MIC: 25 µg/mL
